Measurements taken from paper PMC4770715, “LIM kinase inhibitors disrupt mitotic microtubule organization and impair tumor cell proliferation” (Oncotarget, 2015).

How the values were obtained:
[1] = molecular target: T1, LIMK1 (Homo sapiens, UniProt P53667); assay: biochemical; design: KINOMEscan active-site competition binding, percent of control (100 = no competition); conditions: competition binding, percent control
Excerpt: Kinases inhibited >25% to 50% have yellow circles, 51% to 75% have orange circles, and >76% have red circles. In each case, the size of the circle is proportional to percentage inhibition.

[2] = molecular target: T2, ABL1(H396P)-nonphosphorylated (Homo sapiens, UniProt P00519, H396P); assay: biochemical; design: KINOMEscan active-site competition binding, percent of control (100 = no competition); conditions: competition binding, percent control
T2 construct: nonphosphorylated

[3] = molecular target: T3, ABL1(F317L)-phosphorylated (Homo sapiens, UniProt P00519, F317L); assay: biochemical; design: KINOMEscan active-site competition binding, percent of control (100 = no competition); conditions: competition binding, percent control
T3 construct: phosphorylated

[4] = molecular target: T4, BIKE (Homo sapiens, UniProt Q9NSY1); assay: biochemical; design: KINOMEscan active-site competition binding, percent of control (100 = no competition); conditions: competition binding, percent control
T4 construct: gene BMP2K

[5] = molecular target: PRKX (Homo sapiens, UniProt P51817); assay: biochemical; design: KINOMEscan active-site competition binding, percent of control (100 = no competition); conditions: competition binding, percent control
[6] = molecular target: CAMKK2 (Homo sapiens, UniProt Q96RR4); assay: biochemical; design: KINOMEscan active-site competition binding, percent of control (100 = no competition); conditions: competition binding, percent control
[7] = molecular target: PAK4 (Homo sapiens, UniProt O96013); assay: biochemical; design: KINOMEscan active-site competition binding, percent of control (100 = no competition); conditions: competition binding, percent control
[8] = molecular target: T5, S6K1 (Homo sapiens, UniProt P23443); assay: biochemical; design: KINOMEscan active-site competition binding, percent of control (100 = no competition); conditions: competition binding, percent control
T5 construct: gene RPS6KB1

[9] = molecular target: AKT2 (Homo sapiens, UniProt P31751); assay: biochemical; design: KINOMEscan active-site competition binding, percent of control (100 = no competition); conditions: competition binding, percent control
[10] = molecular target: HCK (Homo sapiens, UniProt P08631); assay: biochemical; design: KINOMEscan active-site competition binding, percent of control (100 = no competition); conditions: competition binding, percent control
[11] = molecular target: T6, MST3 (Homo sapiens, UniProt Q9Y6E0); assay: biochemical; design: KINOMEscan active-site competition binding, percent of control (100 = no competition); conditions: competition binding, percent control
T6 construct: gene STK24

[12] = molecular target: RIOK3 (Homo sapiens, UniProt O14730); assay: biochemical; design: KINOMEscan active-site competition binding, percent of control (100 = no competition); conditions: competition binding, percent control
[13] = molecular target: LTK (Homo sapiens, UniProt P29376); assay: biochemical; design: KINOMEscan active-site competition binding, percent of control (100 = no competition); conditions: competition binding, percent control
[14] = molecular target: T1, LIMK1; assay: in vitro kinase enzyme assay; type: biochemical

Sequence of LTK (P29376 whole entry): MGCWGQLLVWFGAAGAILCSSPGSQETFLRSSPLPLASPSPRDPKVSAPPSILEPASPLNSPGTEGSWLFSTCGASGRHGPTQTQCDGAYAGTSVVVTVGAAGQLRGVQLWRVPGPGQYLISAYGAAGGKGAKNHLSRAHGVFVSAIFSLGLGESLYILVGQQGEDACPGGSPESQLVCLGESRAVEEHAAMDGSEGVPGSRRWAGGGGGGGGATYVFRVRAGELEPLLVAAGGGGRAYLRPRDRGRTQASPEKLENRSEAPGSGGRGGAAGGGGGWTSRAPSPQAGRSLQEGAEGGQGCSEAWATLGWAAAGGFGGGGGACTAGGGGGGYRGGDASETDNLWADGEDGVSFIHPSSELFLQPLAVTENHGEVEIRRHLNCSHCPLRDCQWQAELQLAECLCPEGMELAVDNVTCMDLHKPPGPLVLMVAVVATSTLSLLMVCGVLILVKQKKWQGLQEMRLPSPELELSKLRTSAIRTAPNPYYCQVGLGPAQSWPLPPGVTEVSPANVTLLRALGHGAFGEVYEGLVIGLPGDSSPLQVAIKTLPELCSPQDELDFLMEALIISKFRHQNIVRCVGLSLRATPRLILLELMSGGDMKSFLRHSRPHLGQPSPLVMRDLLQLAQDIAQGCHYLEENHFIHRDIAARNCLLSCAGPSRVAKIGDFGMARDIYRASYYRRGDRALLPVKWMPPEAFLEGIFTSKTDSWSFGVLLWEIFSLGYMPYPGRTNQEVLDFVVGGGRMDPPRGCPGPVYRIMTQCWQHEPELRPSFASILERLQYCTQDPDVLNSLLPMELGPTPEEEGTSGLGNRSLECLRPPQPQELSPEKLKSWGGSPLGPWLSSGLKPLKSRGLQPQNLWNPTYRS
Sequence of AKT2 (P31751 whole entry): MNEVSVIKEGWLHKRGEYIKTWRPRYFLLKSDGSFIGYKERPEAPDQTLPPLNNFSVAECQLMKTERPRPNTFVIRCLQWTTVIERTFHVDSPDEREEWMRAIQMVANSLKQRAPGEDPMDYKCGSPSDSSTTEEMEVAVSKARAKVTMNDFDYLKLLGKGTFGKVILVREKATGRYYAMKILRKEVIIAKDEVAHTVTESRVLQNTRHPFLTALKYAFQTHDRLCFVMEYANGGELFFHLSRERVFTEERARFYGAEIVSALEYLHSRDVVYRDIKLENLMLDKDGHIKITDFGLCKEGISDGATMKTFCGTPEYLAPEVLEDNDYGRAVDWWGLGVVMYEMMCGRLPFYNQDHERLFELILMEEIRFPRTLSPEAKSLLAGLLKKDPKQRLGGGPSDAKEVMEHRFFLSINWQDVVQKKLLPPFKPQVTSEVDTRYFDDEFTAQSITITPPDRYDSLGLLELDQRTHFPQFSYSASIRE
Sequence of PRKX (P51817 whole entry): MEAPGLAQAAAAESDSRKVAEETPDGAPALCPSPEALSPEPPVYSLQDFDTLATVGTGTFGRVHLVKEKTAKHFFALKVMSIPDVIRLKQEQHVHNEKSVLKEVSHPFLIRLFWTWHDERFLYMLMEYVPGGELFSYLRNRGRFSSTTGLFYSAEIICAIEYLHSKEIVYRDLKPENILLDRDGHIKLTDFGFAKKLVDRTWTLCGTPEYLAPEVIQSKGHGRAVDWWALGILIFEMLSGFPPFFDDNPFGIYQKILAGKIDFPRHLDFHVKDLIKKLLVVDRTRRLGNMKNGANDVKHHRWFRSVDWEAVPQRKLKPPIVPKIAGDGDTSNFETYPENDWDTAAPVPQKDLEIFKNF
T5 sequence (P23443 whole entry): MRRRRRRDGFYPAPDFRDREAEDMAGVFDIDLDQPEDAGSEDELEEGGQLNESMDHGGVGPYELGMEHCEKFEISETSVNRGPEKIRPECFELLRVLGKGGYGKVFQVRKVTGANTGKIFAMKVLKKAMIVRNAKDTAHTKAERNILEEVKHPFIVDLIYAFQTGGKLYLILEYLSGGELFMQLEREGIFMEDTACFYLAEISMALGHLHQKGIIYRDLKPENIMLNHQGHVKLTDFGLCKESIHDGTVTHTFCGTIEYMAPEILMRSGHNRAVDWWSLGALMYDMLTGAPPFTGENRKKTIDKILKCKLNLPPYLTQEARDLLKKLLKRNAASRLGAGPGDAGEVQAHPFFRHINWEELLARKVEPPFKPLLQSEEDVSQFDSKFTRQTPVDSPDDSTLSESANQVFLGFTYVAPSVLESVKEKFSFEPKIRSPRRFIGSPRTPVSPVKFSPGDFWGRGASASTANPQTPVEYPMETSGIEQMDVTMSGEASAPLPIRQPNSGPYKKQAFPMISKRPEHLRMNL
Sequence of PAK4 (O96013 whole entry): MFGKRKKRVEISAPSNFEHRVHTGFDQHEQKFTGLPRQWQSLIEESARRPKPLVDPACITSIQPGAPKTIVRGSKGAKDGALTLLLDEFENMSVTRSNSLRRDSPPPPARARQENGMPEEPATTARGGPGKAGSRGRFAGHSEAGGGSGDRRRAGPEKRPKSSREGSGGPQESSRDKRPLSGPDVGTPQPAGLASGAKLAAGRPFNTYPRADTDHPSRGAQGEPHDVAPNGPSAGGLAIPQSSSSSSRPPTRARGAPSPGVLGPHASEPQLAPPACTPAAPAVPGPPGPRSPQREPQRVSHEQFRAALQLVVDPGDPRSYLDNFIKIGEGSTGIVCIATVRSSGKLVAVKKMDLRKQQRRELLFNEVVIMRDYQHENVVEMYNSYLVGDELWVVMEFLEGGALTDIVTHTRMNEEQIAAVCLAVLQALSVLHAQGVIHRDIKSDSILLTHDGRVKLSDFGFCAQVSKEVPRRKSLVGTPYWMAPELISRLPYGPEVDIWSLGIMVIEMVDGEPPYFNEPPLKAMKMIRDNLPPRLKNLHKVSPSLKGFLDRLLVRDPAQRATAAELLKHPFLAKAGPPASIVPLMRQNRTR
T4 sequence (Q9NSY1 whole entry): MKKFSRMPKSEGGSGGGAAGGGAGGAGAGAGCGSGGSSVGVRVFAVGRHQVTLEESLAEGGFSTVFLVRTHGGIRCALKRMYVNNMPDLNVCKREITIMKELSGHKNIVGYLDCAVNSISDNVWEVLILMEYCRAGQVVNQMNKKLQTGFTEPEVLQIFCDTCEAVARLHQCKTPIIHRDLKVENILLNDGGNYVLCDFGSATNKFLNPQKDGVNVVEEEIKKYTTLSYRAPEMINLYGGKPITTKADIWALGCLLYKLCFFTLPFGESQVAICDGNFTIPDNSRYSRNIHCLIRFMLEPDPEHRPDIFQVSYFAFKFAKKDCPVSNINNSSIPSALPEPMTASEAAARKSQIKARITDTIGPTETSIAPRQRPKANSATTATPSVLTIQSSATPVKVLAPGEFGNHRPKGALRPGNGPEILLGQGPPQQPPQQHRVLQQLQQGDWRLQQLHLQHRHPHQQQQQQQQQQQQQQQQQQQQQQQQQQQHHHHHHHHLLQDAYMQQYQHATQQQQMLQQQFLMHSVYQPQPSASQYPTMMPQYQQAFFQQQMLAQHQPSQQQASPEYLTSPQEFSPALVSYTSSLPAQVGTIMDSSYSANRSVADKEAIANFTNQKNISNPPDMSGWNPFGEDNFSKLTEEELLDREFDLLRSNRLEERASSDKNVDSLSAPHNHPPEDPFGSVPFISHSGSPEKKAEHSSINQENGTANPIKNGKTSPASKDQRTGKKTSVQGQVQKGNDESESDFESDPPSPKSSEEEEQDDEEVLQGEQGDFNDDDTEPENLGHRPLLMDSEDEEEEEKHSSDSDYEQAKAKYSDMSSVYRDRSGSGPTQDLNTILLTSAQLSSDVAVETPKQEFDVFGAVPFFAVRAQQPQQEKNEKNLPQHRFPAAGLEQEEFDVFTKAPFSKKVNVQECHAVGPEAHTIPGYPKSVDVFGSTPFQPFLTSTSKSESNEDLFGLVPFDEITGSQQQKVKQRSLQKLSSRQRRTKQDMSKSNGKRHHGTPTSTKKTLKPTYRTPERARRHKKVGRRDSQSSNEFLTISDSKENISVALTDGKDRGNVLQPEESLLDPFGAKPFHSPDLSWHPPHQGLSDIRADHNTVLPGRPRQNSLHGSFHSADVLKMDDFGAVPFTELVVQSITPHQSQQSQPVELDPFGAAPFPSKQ
Sequence of CAMKK2 (Q96RR4 whole entry): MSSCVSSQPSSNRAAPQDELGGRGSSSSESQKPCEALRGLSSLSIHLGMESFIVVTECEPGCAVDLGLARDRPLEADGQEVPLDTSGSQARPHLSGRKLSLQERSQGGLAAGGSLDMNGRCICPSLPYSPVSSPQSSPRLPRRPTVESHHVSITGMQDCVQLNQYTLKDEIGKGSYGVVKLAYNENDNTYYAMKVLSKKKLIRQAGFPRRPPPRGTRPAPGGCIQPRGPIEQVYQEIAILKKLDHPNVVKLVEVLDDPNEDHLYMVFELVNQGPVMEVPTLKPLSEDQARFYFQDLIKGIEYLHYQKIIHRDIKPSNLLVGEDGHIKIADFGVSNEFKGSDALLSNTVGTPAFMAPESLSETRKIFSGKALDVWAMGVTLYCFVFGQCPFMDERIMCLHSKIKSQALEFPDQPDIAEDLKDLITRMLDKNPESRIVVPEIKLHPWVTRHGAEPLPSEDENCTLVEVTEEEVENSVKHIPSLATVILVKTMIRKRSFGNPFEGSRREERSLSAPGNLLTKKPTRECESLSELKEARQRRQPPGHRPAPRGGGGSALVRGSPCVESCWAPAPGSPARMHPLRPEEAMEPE
T6 sequence (Q9Y6E0 whole entry): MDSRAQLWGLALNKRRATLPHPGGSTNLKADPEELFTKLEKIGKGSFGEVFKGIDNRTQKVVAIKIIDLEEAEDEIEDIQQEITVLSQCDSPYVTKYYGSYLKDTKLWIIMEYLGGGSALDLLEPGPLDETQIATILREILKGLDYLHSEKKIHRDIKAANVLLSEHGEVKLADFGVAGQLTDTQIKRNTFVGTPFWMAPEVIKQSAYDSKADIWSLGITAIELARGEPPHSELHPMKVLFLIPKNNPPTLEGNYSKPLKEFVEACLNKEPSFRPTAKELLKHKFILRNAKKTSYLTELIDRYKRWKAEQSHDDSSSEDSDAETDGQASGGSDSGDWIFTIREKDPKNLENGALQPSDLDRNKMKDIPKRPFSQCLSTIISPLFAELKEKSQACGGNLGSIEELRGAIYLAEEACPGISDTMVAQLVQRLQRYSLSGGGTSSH

## COc1ccc(-c2cnccc2-c2cnc(NC(=O)C(C)C)s2)c(C(F)(F)F)c1 [CRT0105446, N-{5-[3-(4-Methoxy-2-trifluoromethyl-phenyl)-pyridin-4-yl]-hiazol-2-yl}-isobutyramide]
[1]
  remaining binding at 10 µM: 2%
[2]
  remaining binding at 10 µM: 71%
[3]
  remaining binding at 10 µM: 89%
[4]
  remaining binding at 10 µM: 100%
[5]
  remaining binding at 10 µM: 100%
[6]
  remaining binding at 10 µM: 95%
[7]
  remaining binding at 10 µM: 82%
[8]
  remaining binding at 10 µM: 78%
[9]
  remaining binding at 10 µM: 100%
[10]
  remaining binding at 10 µM: 100%
[11]
  remaining binding at 10 µM: 72%
[12]
  remaining binding at 10 µM: 94%
[13]
  remaining binding at 10 µM: 100%
[14]
  IC50: 8 nM

## Cc1ccc(-c2cnccc2-c2cnc(Nc3ccc(O)cc3)s2)c(Cl)c1 [CRT0105950, 4-{5-[3-(2-Chloro-4-methyl-phenyl)-pyridin-4-yl]-thiazol-2-ylamino}-phenol]
[2]
  remaining binding at 10 µM: 27%
[3]
  remaining binding at 10 µM: 67%
[4]
  remaining binding at 10 µM: 36%
[5]
  remaining binding at 10 µM: 100%
[6]
  remaining binding at 10 µM: 43%
[7]
  remaining binding at 10 µM: 79%
[8]
  remaining binding at 10 µM: 41%
[9]
  remaining binding at 10 µM: 100%
[10]
  remaining binding at 10 µM: 94%
[11]
  remaining binding at 10 µM: 40%
[12]
  remaining binding at 10 µM: 66%
[13]
  remaining binding at 10 µM: 100%
